Test results: ChEMBL document CHEMBL3044583, “Mechanisms and Issues Relating to the Use of D1-like Dopamine Receptor Agonists for Age-related Illnesses: Parkinson?s Disease and Memory and Cognition” (Med Chem Res, 2004)

What was measured:
[1] = biological target: D(1A) dopamine receptor (Homo sapiens) (UniProt P21728); assay: Binding affinity to dopamine D1 receptor (unknown origin)
[2] = biological target: D(1A) dopamine receptor (Rattus norvegicus) (UniProt P18901)
Description: Binding affinity to dopamine D1 receptor in Rattus norvegicus (rat) brain

[3] = Half life in Rattus norvegicus (rat) plasma; assay type: ADME, cell-free

D(1A) dopamine receptor (Homo sapiens), sequence (P21728 whole entry): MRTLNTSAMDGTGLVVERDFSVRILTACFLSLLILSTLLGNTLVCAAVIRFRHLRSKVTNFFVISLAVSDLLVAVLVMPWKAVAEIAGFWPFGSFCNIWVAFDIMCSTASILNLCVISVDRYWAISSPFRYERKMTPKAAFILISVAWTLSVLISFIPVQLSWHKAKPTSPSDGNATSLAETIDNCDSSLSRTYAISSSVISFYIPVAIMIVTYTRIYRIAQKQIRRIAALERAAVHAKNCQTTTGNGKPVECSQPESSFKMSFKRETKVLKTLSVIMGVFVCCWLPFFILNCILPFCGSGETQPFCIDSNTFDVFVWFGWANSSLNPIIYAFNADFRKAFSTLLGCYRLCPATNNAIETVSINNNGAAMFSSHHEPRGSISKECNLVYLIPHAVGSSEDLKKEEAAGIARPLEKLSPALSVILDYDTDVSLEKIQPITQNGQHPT
D(1A) dopamine receptor (Rattus norvegicus), sequence (P18901 whole entry): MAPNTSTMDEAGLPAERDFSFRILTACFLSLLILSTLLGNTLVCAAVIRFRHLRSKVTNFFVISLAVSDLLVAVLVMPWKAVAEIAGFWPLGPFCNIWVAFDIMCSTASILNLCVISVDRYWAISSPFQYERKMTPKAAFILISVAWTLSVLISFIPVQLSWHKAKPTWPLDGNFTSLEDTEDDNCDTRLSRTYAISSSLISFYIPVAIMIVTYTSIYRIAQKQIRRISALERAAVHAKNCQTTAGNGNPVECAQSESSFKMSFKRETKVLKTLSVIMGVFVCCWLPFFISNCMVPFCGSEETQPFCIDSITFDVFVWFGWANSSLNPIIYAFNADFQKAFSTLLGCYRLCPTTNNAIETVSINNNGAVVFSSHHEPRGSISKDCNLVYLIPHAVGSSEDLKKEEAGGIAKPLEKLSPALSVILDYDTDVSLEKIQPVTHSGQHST

Structure (SMILES)	K0.5 [1]	other results
NC[C@@H]1O[C@H](C23CC4CC(CC(C4)C2)C3)Cc2c1ccc(O)c2O	1 nM	
Oc1cc2c(cc1O)[C@H]1c3ccccc3CN[C@@H]1CC2		K0.5 [2]: 5 nM
CCCc1cc2c(s1)CN[C@@H]1CCc3cc(O)c(O)cc3[C@@H]21 (relative stereo)	1 nM	
NC[C@@H]1O[C@H](c2ccccc2)Cc2c1ccc(O)c2O (relative stereo)	1 nM	
CCCc1cc2c(s1)CN[C@@H]1CCc3cc(OC(C)=O)c(OC(C)=O)cc3[C@@H]21.Cl (relative stereo) [ADROGOLIDE HYDROCHLORIDE]		half-life [3]: 1 min
